Assay results: US10064865B2, “Composition comprising phosphodiesterase type 5 inhibitor for inhibiting apoptosis of nerve cells” (ARIBIO INC., priority 2012, dated 2018)
Marks after values point to notes of the source that are not given here.

Tests used:
[1] = system: neuron apoptosis-operated rats, ipsilateral cerebral cortex; assay: Example 1 histopathology (H&E): cerebral atrophy and degenerative neurons; format: in vivo, Sprague-Dawley (SD) rats; details: for Cerebral atrophic % / Numbers of neurons: Degenerative cells: 29 days after neuron apoptosis
Experimental: Total one hundred healthy male Sprague-Dawley (SD) rats (6-wk old upon receipt; Japan; Body weight ranged in 180-200 g upon receipt) were used after acclimatization for […]. Animals were allocated five per polycarbonate cage in a temperature (20-25° C.) and humidity (50-55%) controlled room. Light:dark cycle was 12 hr:12 hr, and standard rodent chow (Samyang, Korea) and water were supplied free to access. All animals were treated in accordance with the Guidelines for Care and Use of Laboratory Animals of Daegu Haany University based on the Guide for the Care and Use of Laboratory Animals by Institute of Laboratory Animal Resources, Commission on Life Science, National Research Council, USA on 1996, Washington D.C. Experimental groups were as follows:
The mirodenafil (mirodenafil 2HCl; SK Chemical Life Science Business, KR) was used in this experiment. […] Mirodenafil was stored at 4° C. in a refrigerator to protect from light and humidity until used. Three different dosages, 0.5, 1 and 2 mg/kg of mirodenafil were directly dissolved in saline and subcutaneously administered in a volume of 1 ml/kg on the dorsal back skins, once a day for 28 days from 24 hrs after stabilization periods from operation. In saline and neuron apoptosis control rats, equal volumes of saline as vehicle were administered, instead of mirodenafil, respectively.
The induction of neuron apoptosis was carried out by damaging the right hemisphere of the brain of animals. Specifically, animals were anesthetized with 2 or 3% isoflurane in the mixture of 70% N2O and 28.5% O2, and were maintained with 1 to 1.5% isoflurane in the mixture of 70% N2O and 28.5% O2. After that the temporalis muscle was bisected and reflected through an incision made midway between the eye and the eardrum canal. The proximal MCA was exposed through a subtemporal craniectomy by microdental drills without removing the zygomatic arch and without transecting the facial nerve. […] Mortality was less than 5%. For sham control, all procedures were performed in the same way, with the exception of the occlusion of the MCA.
At 29 days after neuron apoptosis rats were sacrificed. Brains were removed, washed in chilled phosphate buffered saline (PBS, pH7.4), and dissected into 6 coronal sections (2 mm thickness) ranging from 2 to 14 mm from the frontal brain pole on the rat brain stainless steel coronal matrix (Harvard, USA). Brain slices prepared by the stainless steel coronal matrix were directly fixed in 10% NBF, not stained with TTC. Then, embedded in paraffin, cross-sectioned, and stained with hematoxylin and eosin (H&E) for observing general histopathology of cerebral cortex. […] The histopathologist was blindes to group distribution when this analysis was made.
Histomorphometry: The atrophic % of ipsilateral cerebral cortex was calculated as following equation 1 as compared with intact contralateral hemisphere. In addition, the numbers of degenerative neurons were also measured in the restricted view fields of cerebral cortex, mm^2, respectively. Cerebral atrophy formation=(Contralateral cerebral cortex area−ipsilateral cerebral cortex area)/Contralateral cerebral cortex area×100(%) [EQUATION 1]
(§1) All data were expressed as mean±standard deviation (S.D.) of ten rats. Multiple comparison tests for different dose groups were conducted. Variance homogeneity was examined using the Levene test (Levene A, Clin Otalary, 1981; 6:145-51). […] Statistical analyses were conducted using SPSS (Release 14K, SPSS Inc., USA; Ludbrook, Clin Exp Pharmacol Physiol, 1997; 24:294-6). In addition, the percent changes between neuron apoptosis control and mirodenafil treated rats were calculated to help the understanding of the efficacy of test material as follow equation 3. Percentage changes as compared with neuron apoptosis control (%)=[((Data of mirodenafil treated groups−Data of neuron apoptosis control)/Data of neuron apoptosis control)×100] [EQUATION 3]

[2] = system: neuron apoptosis-operated rats; assay: Example 1 hindlimb placing test; format: in vivo, Sprague-Dawley (SD) rats
Experimental: Sensorimotor function was evaluated by use of limb placing de Ryck M et al., Stroke. 20:1383-90(1989)) and body swing (Borlongan and Sanberg, J Neurosci. 15:5372-8(1995)) tests. These tests were performed one day before neuron apoptosis to obtain a baseline and then at 1, 3, 7, 14, 21 and 28 days after neuron apoptosis. Behavioral tests were done before drug administration on days when both were scheduled. The investigator performing the surgery and behavioral assessments was blinded to treatment assignment.
Limb placing test: Forelimb and hindlimb placement were assessed independently. For the forelimb placing test, the rats were held by their torso with their forepaws hanging free and moved slowly toward the edge of a tabletop, stopping short of touching the vibrissae (for vision-induced placing), touching the vibrissae (for vibrissae-induced placing), making light contact with the front of the forepaw to the edge of the tabletop (for tactile-induced placing), and pressing the forepaws to the edge of the table with increased pressure (for proprioceptive-induced placing). Hindlimb placing was conducted in the same manner as above but with tactile and proprioceptive stimulation applied to the front/top of each hindlimb. Each limb for placing in response to visual, vibrissae, tactile, and proprioceptive stimulation are scored in the following manner (A total of 12 points in forelimb placing test and 6 points in hindlimb placing test means maximal neurological deficit, and 0 points means normal performance):
Normal performance=0 points;
Performance with unilateral limb=1 point;
Performance with a delay (2 seconds) and/or incomplete=2 point;
as §1

## CCCOc1ccc(S(=O)(=O)N2CCN(CCO)CC2)cc1-c1nc2c(CCC)cn(CC)c2c(=O)[nH]1 [Mirodenafil, mirodenafil]
[1]; 0.5 mg/kg
  ipsilateral cerebral atrophic %, change as compared with neuron apoptosis control: −8.70%
  numbers of degenerative neurons, change as compared with neuron apoptosis control: −44.47%
[1]; 0.5 mg/kg s.c. once a day
  Cerebral atrophic %: 51.38 ± 10.74^a %
  Numbers of neurons: Degenerative cells: 45.20 ± 8.97^ab cells/mm^2 of cerebral cortex
[1]; 1 mg/kg
  ipsilateral cerebral atrophic %, change as compared with neuron apoptosis control: −46.42%
  numbers of degenerative neurons, change as compared with neuron apoptosis control: −73.46%
[1]; 1 mg/kg s.c. once a day
  Cerebral atrophic %: 30.15 ± 10.28^ab %
  Numbers of neurons: Degenerative cells: 21.60 ± 9.43^ab cells/mm^2 of cerebral cortex
[1]; 2 mg/kg
  ipsilateral cerebral atrophic %, change as compared with neuron apoptosis control: −53.31%
  numbers of degenerative neurons, change as compared with neuron apoptosis control: −76.54%
[1]; 2 mg/kg s.c. once a day
  Cerebral atrophic %: 26.28 ± 9.12^ab %
  Numbers of neurons: Degenerative cells: 19.10 ± 2.08^ab cells/mm^2 of cerebral cortex
[2]; 0.5 mg/kg group, day 1 after operation (before drug administration)
  Hindlimb placing test score: 6.00 ± 0.00^d
[2]; 0.5 mg/kg group, day −1 (baseline)
  Hindlimb placing test score: 0.50 ± 0.71
[2]; 0.5 mg/kg s.c. once a day, day 3 after operation
  Hindlimb placing test score: 4.00 ± 0.82^a
[2]; 0.5 mg/kg s.c. once a day, day 7 after operation
  Hindlimb placing test score: 3.20 ± 0.79^a
[2]; 0.5 mg/kg s.c. once a day, day 14 after operation
  Hindlimb placing test score: 2.80 ± 0.63^d
[2]; 0.5 mg/kg s.c. once a day, day 21 after operation
  Hindlimb placing test score: 2.60 ± 0.70^a
[2]; 0.5 mg/kg s.c. once a day, day 28 after operation
  Hindlimb placing test score: 2.40 ± 0.97^a
[2]; 0.5 mg/kg, 3 days after surgery
  hindlimb placing test scores, change as compared with neuron apoptosis control: −6.98%
[2]; 0.5 mg/kg, 7 days after surgery
  hindlimb placing test scores, change as compared with neuron apoptosis control: −8.57%
[2]; 0.5 mg/kg, 14 days after surgery
  hindlimb placing test scores, change as compared with neuron apoptosis control: −9.68%
[2]; 0.5 mg/kg, 21 days after surgery
  hindlimb placing test scores, change as compared with neuron apoptosis control: −13.33%
[2]; 0.5 mg/kg, 28 days after surgery
  hindlimb placing test scores, change as compared with neuron apoptosis control: −11.11%
[2]; 1 mg/kg group, day 1 after operation (before drug administration)
  Hindlimb placing test score: 6.00 ± 0.00^d
[2]; 1 mg/kg group, day −1 (baseline)
  Hindlimb placing test score: 0.30 ± 0.48
[2]; 1 mg/kg s.c. once a day, day 3 after operation
  Hindlimb placing test score: 3.50 ± 0.71^ac
[2]; 1 mg/kg s.c. once a day, day 7 after operation
  Hindlimb placing test score: 2.50 ± 0.71^ab
[2]; 1 mg/kg s.c. once a day, day 14 after operation
  Hindlimb placing test score: 2.10 ± 0.57^df
[2]; 1 mg/kg s.c. once a day, day 21 after operation
  Hindlimb placing test score: 1.70 ± 0.48^ab
[2]; 1 mg/kg s.c. once a day, day 28 after operation
  Hindlimb placing test score: 1.10 ± 0.74^ab
[2]; 1 mg/kg, 3 days after surgery
  hindlimb placing test scores, change as compared with neuron apoptosis control: −18.80%
[2]; 1 mg/kg, 7 days after surgery
  hindlimb placing test scores, change as compared with neuron apoptosis control: −28.57%
[2]; 1 mg/kg, 14 days after surgery
  hindlimb placing test scores, change as compared with neuron apoptosis control: −32.26%
[2]; 1 mg/kg, 21 days after surgery
  hindlimb placing test scores, change as compared with neuron apoptosis control: −43.33%
[2]; 1 mg/kg, 28 days after surgery
  hindlimb placing test scores, change as compared with neuron apoptosis control: −59.26%
[2]; 2 mg/kg group, day 1 after operation (before drug administration)
  Hindlimb placing test score: 6.00 ± 0.00^d
[2]; 2 mg/kg group, day −1 (baseline)
  Hindlimb placing test score: 0.40 ± 0.52
[2]; 2 mg/kg s.c. once a day, day 3 after operation
  Hindlimb placing test score: 3.30 ± 0.67^ab
[2]; 2 mg/kg s.c. once a day, day 7 after operation
  Hindlimb placing test score: 2.30 ± 0.82^ab
[2]; 2 mg/kg s.c. once a day, day 14 after operation
  Hindlimb placing test score: 1.80 ± 1.03^de
[2]; 2 mg/kg s.c. once a day, day 21 after operation
  Hindlimb placing test score: 1.60 ± 0.84^ab
[2]; 2 mg/kg s.c. once a day, day 28 after operation
  Hindlimb placing test score: 1.10 ± 0.57^ab
[2]; 2 mg/kg, 3 days after surgery
  hindlimb placing test scores, change as compared with neuron apoptosis control: −23.26%
[2]; 2 mg/kg, 7 days after surgery
  hindlimb placing test scores, change as compared with neuron apoptosis control: −34.29%
[2]; 2 mg/kg, 14 days after surgery
  hindlimb placing test scores, change as compared with neuron apoptosis control: −41.94%
[2]; 2 mg/kg, 21 days after surgery
  hindlimb placing test scores, change as compared with neuron apoptosis control: −46.67%
[2]; 2 mg/kg, 28 days after surgery
  hindlimb placing test scores, change as compared with neuron apoptosis control: −59.26%
